From BindingDB's records for doi:10.1021/jm058208o (Universidad Central De Venezuela, 2005) come the findings set out here.

Falcipain-2, sequence (Q9NAW2 whole entry): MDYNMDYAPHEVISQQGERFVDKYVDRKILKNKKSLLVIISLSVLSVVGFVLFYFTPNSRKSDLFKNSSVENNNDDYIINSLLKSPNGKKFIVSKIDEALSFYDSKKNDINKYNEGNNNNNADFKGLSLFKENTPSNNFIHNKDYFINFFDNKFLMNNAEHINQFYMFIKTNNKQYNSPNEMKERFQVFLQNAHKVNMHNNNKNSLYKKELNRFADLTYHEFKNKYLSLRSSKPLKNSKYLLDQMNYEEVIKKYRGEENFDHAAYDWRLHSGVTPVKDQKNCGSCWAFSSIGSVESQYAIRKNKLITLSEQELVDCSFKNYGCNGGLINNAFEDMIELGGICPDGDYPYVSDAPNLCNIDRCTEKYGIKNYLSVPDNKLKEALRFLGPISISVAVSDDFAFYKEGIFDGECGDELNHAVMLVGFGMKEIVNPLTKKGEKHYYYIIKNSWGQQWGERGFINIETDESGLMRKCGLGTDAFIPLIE

For the assay, the target named is Falcipain-2 (Plasmodium falciparum, UniProt Q9NAW2). Put plainly: Falcipain Enzyme Inhibition Assay. The note with it: pH 5.5; 22 °C. The method, then:
The substrate peptide terminating in AMC is processed by falcipain-2 with or without inhibitors, and the accumulation of AMC was monitored in a Labsystems Fluoroskan Ascent spectrofluorometer. IC50 values were determined from plots of percent activity over concentration using GraphPad Prism software.
One may read the IC50 as the midpoint of a concentration-inhibition curve. In turn, `O=C(Nc1ccc(Cl)cc1)Nc1ccc(C(=O)/C=C/c2cccnc2)cc1` [3-(4-chlorophenyl)-1-{4-[(2E)-3-(pyridin-3-yl)prop-2-enoyl]phenyl}urea] yielded an IC50 of 3.4 µM.

`COc1ccc(NC(=O)Nc2ccc(C(=O)/C=C/c3cccnc3)cc2)cc1` [3-(4-methoxyphenyl)-1-{4-[(2E)-3-(pyridin-3-yl)prop-2-enoyl]phenyl}urea] came in with an IC50 of 12.5 µM.

On to `CC(C)C[C@H](NC(=O)[C@@H]1O[C@H]1C(=O)O)C(=O)NCCCCN=C(N)N` [L-trans-3-Carboxyoxiran-2-carbonyl-L-leucylagmatine], for which the IC50 stood at 0.058 µM.
